As usually defined, the IC50 is the midpoint of a concentration-inhibition curve.

These results are taken from publication PMC9130233, “An inhibitor of RORγ for chronic pulmonary obstructive disease treatment” (Scientific Reports, 2022).

Marks after values point to notes of the source that are not given here. Bounds are passed on as bounds.

In one data set the target is T1, Alpha 1A (Homo sapiens, UniProt P35348).
T1 construct: Eurofins Cerep
Briefly: Cerep panel, Alpha 1A (antagonist). The format is cell-based. As to conditions: read-out: IC50 Alpha 1A (antg). The text has this: (§1) Based on the homology of the ligand binding domains, 3 different isoforms of ROR (hRORα, hRORβ and hRORγ) are reported. Small variations in the LBD regions possibly lead to differences in competitive binding between the nuclear receptors of the ROR isoforms (Fig. 1b). Similar to the assessment of RORγ binding assay, TR-FRET binding assays were also used to assess the affinity of PCCR-1 for other ROR isoforms. […] This was reconfirmed in cellular functional assays for the selected isoforms and nuclear receptors using Gal4 DBD with luciferase reporter system from Indigo (PA, USA). […] In addition, both cellular agonist and antagonist effects as well as for enzyme activity were evaluated with a known reference compound for each target, using a radiolabeled method (Eurofins Cerep, France, Table 1).

A further data set concerns T2, RARα.
T2 construct: purchased Invitrogen
As to the kind of experiment: TR-FRET selectivity binding assay, RARα.
Description: as §1
For selectivity, the ROR isoforms RORα, FXR, LXRα, LXRβ, RXR, RARα were incubated with compound for 60 min at 22 °C followed by detection mix containing respective agonist (All trans retinoic acid for RARα, T0901317 for LXRα, LXRβ, 9-cis Retinoic acid for RXR, GW-4064 for FXR) and coactivator peptide (FD22 for RORα, PGC1α for RXR, RARα, TRAP220 for LXRα, LXRβ, SRC2-2 for FXR) and Tb-anti GST antibody prepared in assay buffer were added into a 384-well white plate. Reading taken after overnight incubation and the data analysis done as per the protocol mentioned in RORγt-LBD and co-activator ligand binding assay.

Data set [1] is described as follows: 14-day dose-range inhalation toxicology study in Sprague Dawley rats. Format: in vivo, rat. Here is the method:
Rats were exposed to PCCR-1 aerosols at 3.4, 10.8 and 32.1 mg/kg/day (delivered dose) for 60 min daily for 14 days using a snout only exposure technique via a modular stainless steel flow past inhalation chamber at indicated doses as mentioned in Table 3. No treatment-related findings noted, including myeloid:erythroid (M:E) ratios in any dose levels except minimal changes in the reticulocytes and adrenal glands.
The 14-day dose-range inhalation toxicology study was conducted at Charles River Laboratories Edinburgh Ltd, Elphinstone Research Centre, Tranent, East Lothian, EH33 2NE, UK, under the Home Office Project License No. PPL 70/8778, Toxicology of Pharmaceuticals. The UK Home Office controls scientific procedures on animals in the UK and does so by the issue of licences under the Animals (Scientific Procedures) Act 1986. The regulations conform to EU Directive 2010/63/EU and achieve the standard of care required by the US Department of Health and Human Services' Guide for the Care and Use of Laboratory Animals.
The toxicology study was done in SD (Sprague Dawley) rats that were exposed to PCCR-1 aerosol for 60 min daily at 3.4, 10.8 and 32.1 mg/kg/day (delivered dose) for 14 days using a snout only exposure technique via a modular stainless steel flow past inhalation chamber. A 60% w/w blend of PCCR-1 in Lactose LH201 was prepared by adding the appropriate amount of PCCR-1 to the appropriate amount of lactose. The estimated delivered doses were derived based on analytical aerosol concentration, and respiratory minute volume calculated based on body weight, exposure duration, and animal body weight (Supplementary section B).

The mark [2] stands for this setting: Females (n = 5/group), 32.1 mg/kg/day.
The mark [3] stands for this setting: Males (n = 5/group), 32.1 mg/kg/day.

T1 sequence (P35348 whole entry): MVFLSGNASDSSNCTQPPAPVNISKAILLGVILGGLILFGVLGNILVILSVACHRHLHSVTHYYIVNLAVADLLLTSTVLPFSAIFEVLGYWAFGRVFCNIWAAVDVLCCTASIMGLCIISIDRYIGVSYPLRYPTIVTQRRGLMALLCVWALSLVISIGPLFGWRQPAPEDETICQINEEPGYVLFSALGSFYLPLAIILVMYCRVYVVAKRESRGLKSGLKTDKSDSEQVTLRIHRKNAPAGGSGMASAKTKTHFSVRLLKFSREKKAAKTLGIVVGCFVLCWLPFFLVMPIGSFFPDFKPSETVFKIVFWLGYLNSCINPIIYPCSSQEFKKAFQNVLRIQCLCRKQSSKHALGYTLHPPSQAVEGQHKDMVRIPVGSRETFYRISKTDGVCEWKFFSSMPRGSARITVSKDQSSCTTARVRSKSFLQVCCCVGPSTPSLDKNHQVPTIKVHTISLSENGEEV

Consider `CCn1c(C(C)(C)Oc2ccc(F)cc2F)nc2cc(NC(=O)Cc3ccc(S(=O)(=O)CC)cc3)ccc21` [PCCR-1], for which the IC50 on Alpha 1A came to 0.19 µM. In the data set on RARα (1 µM), the “% Inhibition RARα” value worked out at 0.00%. Also, in the data set with RARα (10 µM), the “% Inhibition RARα” value was 0.00%. For the same molecule, the “Fold over hRORγ, RARα” value in the data set on RARα (vs RORg IC50 31.87 nM) is on record as more than 313.7 fold. Besides, in data set [1] (setting [2]), the “Microscopic changes: Hypertrophy; zona fasciculata, diffuse (animals affected)” value is 3; the “Microscopic changes: hypertrophy, Mild (animals affected)” value was 2; the “Microscopic changes: hypertrophy, Minimal (animals affected)” value is 1. Besides, in data set [1] (Females, 32.1 mg/kg/day), the “adrenal gland Absolute weight (mean ± SD)” value worked out at 0.0950 ± 0.0139 g, the “adrenal gland weight Relative to body weight (mean ± SD)” value came out at 0.03168 ± 0.00549% and the “adrenal gland weight Relative to brain weight (mean ± SD)” value was determined as 4.657 ± 0.6176%. Besides, the “Reticulocyte count (mean ± SD)” value in data set [1] (Females, 32.1 mg/kg/day, P ≤ 0.01) is reported as 295.4 ± 40.3* 10^9/L. Besides, in data set [1] (setting [3]), the “Microscopic changes: Hypertrophy; zona fasciculata, diffuse (animals affected)” value was 0; the “Microscopic changes: hypertrophy, Mild (animals affected)” value is 0; the “Microscopic changes: hypertrophy, Minimal (animals affected)” value is reported as 0. For the same molecule, in data set [1] (Males, 32.1 mg/kg/day), the “Reticulocyte count (mean ± SD)” value is on record as 287.7 ± 62.6 10^9/L, the “adrenal gland Absolute weight (mean ± SD)” value came out at 0.0581 ± 0.0083 g, the “adrenal gland weight Relative to body weight (mean ± SD)” value was determined as 0.01553 ± 0.00171% and the “adrenal gland weight Relative to brain weight (mean ± SD)” value is 2.803 ± 0.3041%. In addition, the MTD at 14 days in data set [1] (Sprague Dawley, in vivo, inhaled or intranasal, rat, 14-day inhalation, read-out: maximum tolerated dose) was found to be 32.1 mg/kg/day. For the same molecule, the “Microscopic changes: hypertrophy, Minimal (animals affected)” value in data set [1] (female, Sprague-Dawley, rat, in vivo, 14 days) is reported as 0. For the same molecule, in data set [1] (rat, in vivo), the “histopathological change of the adrenal gland” value is given as “bilateral diffuse hypertrophy of the zona fasciculata” and the “reticulocyte count compared with the control group” value is 1.09 fold.
